Test systems include SK-MEL-28 melanoma; SK-MEL-5 melanoma; KM12 colon; SK-MEL-2 melanoma; UACC-257 melanoma; NCI-H23 lung; HCT-15 colon; A549 NSCLC; CCRF-CEM leukemia; HOP-92 NSCLC.
Common to all, as to assay: NCI tumour cell line growth inhibition, 48 h

Here are results for 12 compounds from PubChem BioAssay (NCI).

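Tested at 5 concentrations; 48 h exposure; 96-well plates; endpoints linearly interpolated, else capped at highest concentration. At the GI50, growth is halved. The concentration for full growth arrest is given as TGI.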

With `CCc1ccccc1NC(=O)/C=C/c1ccccc1`, the TGI with SK-MEL-28 melanoma, with SK-MEL-5 melanoma, in the test on KM12 colon, with SK-MEL-2 melanoma, with UACC-257 melanoma and in the test with NCI-H23 lung was more than 100 µM in each case. The TGI in the test with HCT-15 colon, in the test with A549 NSCLC and with CCRF-CEM leukemia was more than 100 µM in each case.

Take `COC(=O)CCC12CCC(=O)C1[C@@H](C(=O)OC)C[C@H]2C(=O)OC` (stereo not given in full): the TGI in the test on SK-MEL-5 melanoma, in the test with KM12 colon, in the test with SK-MEL-2 melanoma, in the test on UACC-257 melanoma, in the test with NCI-H23 lung and with HCT-15 colon was more than 100 µM each time. Further, the TGI in the test on A549 NSCLC and with CCRF-CEM leukemia was more than 100 µM each time.

Turning to `CN(C)c1nc(=NCc2ccco2)ss1`, the TGI is 46.4 µM in the test on SK-MEL-28 melanoma; more than 100 µM in the test with SK-MEL-5 melanoma; more than 55.7 µM with KM12 colon; more than 64.8 µM in the test on SK-MEL-2 melanoma; more than 79.4 µM in the test on UACC-257 melanoma; 58 µM in the test on NCI-H23 lung. Moreover, the TGI with HCT-15 colon was 49.9 µM; in the test on A549 NSCLC it was more than 76.7 µM; in the test on CCRF-CEM leukemia, 33.8 µM.

With `NC(=O)[C@@H](CC1CC1)[C@@H](CCC(F)(F)F)C(=O)N[C@H]1N=C(c2ccccc2)c2cccc(F)c2NC1=O`, the GI50 in the test on SK-MEL-28 melanoma was 19.7 µM; in the test on SK-MEL-5 melanoma it was 17.7 µM; with KM12 colon it was more than 100 µM; in the test on SK-MEL-2 melanoma, more than 100 µM; in the test with UACC-257 melanoma, more than 100 µM; in the test on HOP-92 NSCLC, 19.3 µM. Moreover, the GI50 with NCI-H23 lung, in the test on HCT-15 colon and in the test on A549 NSCLC was more than 100 µM in each case. For the same compound, the TGI is 52.4 µM in the test with SK-MEL-28 melanoma; 35.1 µM with SK-MEL-5 melanoma; more than 100 µM in the test with KM12 colon; more than 100 µM in the test on SK-MEL-2 melanoma; more than 100 µM with UACC-257 melanoma; more than 100 µM in the test with HOP-92 NSCLC. The TGI in the test with NCI-H23 lung, in the test with HCT-15 colon and in the test on A549 NSCLC was more than 100 µM each time.

Take `COC(=O)C1C(=O)CC2CCCCC21` (stereo not given): the TGI in the test with SK-MEL-28 melanoma, in the test on SK-MEL-5 melanoma, in the test on KM12 colon, with SK-MEL-2 melanoma, with UACC-257 melanoma and in the test with HCT-15 colon was more than 100 µM throughout. Moreover, the TGI with A549 NSCLC and in the test with CCRF-CEM leukemia was more than 100 µM throughout.

For the compound `NCCCCC1NC(=O)C(CC(=O)O)NC(=O)CNC(=O)C(CCCN=C(N)N)NC(=O)C(N)CSSCC(C(=O)O)NC(=O)C(CC(=O)O)NC(=O)C2CCCN2C(=O)CNC1=O` (stereo not given), the GI50 in the test on SK-MEL-28 melanoma, with SK-MEL-5 melanoma, in the test on KM12 colon, with SK-MEL-2 melanoma, in the test on NCI-H23 lung and with HCT-15 colon was more than 100 µM in each case. For the same compound, in the test on A549 NSCLC, the GI50 was more than 100 µM. Besides, the TGI in the test on SK-MEL-28 melanoma, in the test with SK-MEL-5 melanoma, with KM12 colon, with SK-MEL-2 melanoma, in the test with NCI-H23 lung and in the test on HCT-15 colon was more than 100 µM throughout. In the test with A549 NSCLC, this compound showed a TGI of more than 100 µM.

For the compound `O=C1C(=O)N(c2ccc(Cl)cc2)C(=O)C(=O)C1c1nc2ccccc2s1`, the TGI in the test with SK-MEL-28 melanoma, with SK-MEL-5 melanoma, in the test on KM12 colon, in the test with SK-MEL-2 melanoma, with UACC-257 melanoma and with HOP-92 NSCLC was more than 100 µM each time. Further, the TGI in the test with NCI-H23 lung and with HCT-15 colon was more than 100 µM each time.

Turning to `COC(=O)C12CC(NC(=O)c3csc([C@@H](C[C@H](C(C)C)N(C)C(=O)[C@@H](NC(=O)[C@H]4CCCCN4C)C4CC4)OC(C)=O)n3)(C1)C2`, the GI50 in the test on SK-MEL-28 melanoma was 0.148 µM; in the test with SK-MEL-5 melanoma, 0.023 µM; in the test on KM12 colon, 0.0363 µM; in the test on SK-MEL-2 melanoma, 0.033 µM; in the test on UACC-257 melanoma, more than 16.7 µM; in the test with NCI-H23 lung it was 0.0885 µM. Moreover, the values for the GI50 in the test with HCT-15 colon, in the test with A549 NSCLC and with CCRF-CEM leukemia were 0.112 µM, 0.101 µM and 0.00613 µM, respectively. Moreover, the TGI in the test with SK-MEL-28 melanoma is more than 16.7 µM; in the test on SK-MEL-5 melanoma it was 0.449 µM; with KM12 colon, more than 16.7 µM; in the test with SK-MEL-2 melanoma it was more than 16.7 µM; in the test with UACC-257 melanoma, more than 16.7 µM; in the test with NCI-H23 lung, more than 16.7 µM. Further, the values for the TGI with HCT-15 colon, in the test with A549 NSCLC and in the test with CCRF-CEM leukemia were more than 16.7 µM, more than 16.7 µM and more than 8.79 µM, respectively.

As to `O=c1cccccc1NCCCCCCCNc1cccccc1=O`, the TGI in the test with KM12 colon is more than 100 µM; with SK-MEL-2 melanoma, more than 100 µM; in the test with UACC-257 melanoma, 45.7 µM; in the test with HOP-92 NSCLC, 97.8 µM; with NCI-H23 lung it was more than 100 µM; with HCT-15 colon, more than 100 µM. For the same compound, the TGI with A549 NSCLC is more than 100 µM; in the test with CCRF-CEM leukemia, 67.2 µM.

Regarding `COc1ccc(-c2cc(C(=O)Nc3cc(C(F)(F)F)cc(C(F)(F)F)c3)c3ccccc3n2)cc1`, the TGI in the test on SK-MEL-28 melanoma is 73.9 µM; with SK-MEL-5 melanoma, 34.6 µM; with KM12 colon, 35.1 µM; with SK-MEL-2 melanoma, 30.6 µM; in the test on UACC-257 melanoma, 51.4 µM; with NCI-H23 lung, 19.2 µM. In addition, the figures for the TGI in the test with HCT-15 colon, in the test with A549 NSCLC and in the test on CCRF-CEM leukemia were 28.7 µM, 17.5 µM and more than 100 µM, respectively.

As for `O=c1c2cc(-c3ccccc3)sc2ncn1Cc1ccc(Cl)c(Cl)c1`, the GI50 in the test with SK-MEL-28 melanoma is 45.5 µM; with SK-MEL-5 melanoma it was 34.2 µM; in the test on KM12 colon, 0.32 µM; in the test on SK-MEL-2 melanoma, 12.2 µM; with UACC-257 melanoma, 62.2 µM; with HOP-92 NSCLC, 16.2 µM. The GI50 was 17.3 µM in the test with NCI-H23 lung, 0.845 µM in the test on HCT-15 colon and 18 µM in the test on A549 NSCLC. The TGI is more than 100 µM with SK-MEL-28 melanoma; more than 100 µM in the test on SK-MEL-5 melanoma; 6.38 µM with KM12 colon; 57.3 µM in the test with SK-MEL-2 melanoma; more than 100 µM in the test with UACC-257 melanoma; 40.5 µM with HOP-92 NSCLC. In addition, the figures for the TGI in the test with NCI-H23 lung, in the test on HCT-15 colon and in the test with A549 NSCLC were 44.2 µM, more than 100 µM and more than 100 µM, respectively.

As to `COC(=O)C1=C(CS(=O)c2ccc([N+](=O)[O-])cc2[N+](=O)[O-])C2C=CC1C2` (stereo not given), the TGI was more than 100 µM in the test with SK-MEL-5 melanoma; more than 100 µM in the test on KM12 colon; more than 100 µM with SK-MEL-2 melanoma; 92.2 µM with UACC-257 melanoma; 98.9 µM in the test on NCI-H23 lung; 29.1 µM in the test on HCT-15 colon. Further, the TGI in the test on A549 NSCLC was more than 100 µM; with CCRF-CEM leukemia it was 34.6 µM.
